Data reported in PMC5218480 (PLoS ONE, 2017).

System: MV-4-11 cells
Test: Gene expression microarray analysis (Affymetrix PrimeView) and GSEA
Assay type: cell-based, human
Parameters: RFU PODN (11730768_x_at) / Fold change /veh PODN (11730768_x_at) / RFU LINC00158 (11744669_a_at) / Fold change /veh LINC00158 (11744669_a_at) / RFU DUSP10 (11751237_a_at) / Fold change /veh DUSP10 (11751237_a_at) / RFU ID3 (11757404_x_at) / Fold change /veh ID3 (11757404_x_at) / RFU PLEKHG5 (11737974_s_at) / Fold change /veh PLEKHG5 (11737974_s_at) / RFU LRRC4B (11730491_at) / Fold change /veh LRRC4B (11730491_at) / RFU GIMAP4 (11747438_a_at) / Fold change /veh GIMAP4 (11747438_a_at) / RFU KRT8 (11758183_x_at) / Fold change /veh KRT8 (11758183_x_at) / RFU CNN1 (11734310_a_at) / Fold change /veh CNN1 (11734310_a_at) / RFU VPS37D (11726825_at) / Fold change /veh VPS37D (11726825_at) / RFU C10orf10 (11716522_x_at) / Fold change /veh C10orf10 (11716522_x_at) / RFU KIR2DL2 /// KIR2DL4 /// KIR2DL5A /// KIR2DL5B /// KIR2DS1 /// KIR2DS2 /// KIR2DS3 /// KIR2DS4 /// KIR3DL3 /// KIR3DL3 /// KIR3DS1 (11738374_at) / Fold change /veh KIR2DL2 /// KIR2DL4 /// KIR2DL5A /// KIR2DL5B /// KIR2DS1 /// KIR2DS2 /// KIR2DS3 /// KIR2DS4 /// KIR3DL3 /// KIR3DL3 /// KIR3DS1 (11738374_at) / RFU C1QL1 (11718748_at) / Fold change /veh C1QL1 (11718748_at) / RFU TMPRSS4 (11747572_a_at) / Fold change /veh TMPRSS4 (11747572_a_at) / RFU HAMP (11756126_x_at) / Fold change /veh HAMP (11756126_x_at) / RFU RNFT2 (11725882_a_at) / Fold change /veh RNFT2 (11725882_a_at) / RFU NR4A2 (11747474_a_at) / Fold change /veh NR4A2 (11747474_a_at) / RFU ABCC12 (11746883_a_at) / Fold change /veh ABCC12 (11746883_a_at) / RFU TMEM136 (11760407_x_at) / Fold change /veh TMEM136 (11760407_x_at) / RFU CLDN22 /// WWC2 (11732394_at) / Fold change /veh CLDN22 /// WWC2 (11732394_at) / RFU HLA-DPB1 (11760878_x_at) / Fold change /veh HLA-DPB1 (11760878_x_at) / RFU SPINT1 (11716480_a_at) / Fold change /veh SPINT1 (11716480_a_at) / RFU GAP43 (11754022_s_at) / Fold change /veh GAP43 (11754022_s_at) / RFU A4GNT (11735810_at) / Fold change /veh A4GNT (11735810_at) / RFU PRB3 (11715151_x_at) / Fold change /veh PRB3 (11715151_x_at) / RFU TUBB4B (11761932_at) / Fold change /veh TUBB4B (11761932_at) / RFU CAPN14 (11732068_a_at) / Fold change /veh CAPN14 (11732068_a_at) / RFU TMCC2 (11721928_a_at) / Fold change /veh TMCC2 (11721928_a_at) / RFU IRGQ (11745062_a_at) / Fold change /veh IRGQ (11745062_a_at) / RFU FAM174B (11720279_a_at) / Fold change /veh FAM174B (11720279_a_at) / RFU TMPRSS4 (11748680_a_at) / Fold change /veh TMPRSS4 (11748680_a_at) / RFU FAM212B (11763350_a_at) / Fold change /veh FAM212B (11763350_a_at) / RFU PLEKHG5 (11743358_a_at) / Fold change /veh PLEKHG5 (11743358_a_at) / RFU ZSCAN30 (11745921_a_at) / Fold change /veh ZSCAN30 (11745921_a_at) / RFU CMKLR1 (11741424_a_at) / Fold change /veh CMKLR1 (11741424_a_at) / RFU LOC101060620 /// MAPK8IP1 (11723275_at) / Fold change /veh LOC101060620 /// MAPK8IP1 (11723275_at) / RFU SPTSSB (11747773_x_at) / Fold change /veh SPTSSB (11747773_x_at) / RFU PRSS12 (11739890_at) / Fold change /veh PRSS12 (11739890_at) / RFU BIN1 (11741810_x_at) / Fold change /veh BIN1 (11741810_x_at) / RFU WNT11 (11732464_a_at) / Fold change /veh WNT11 (11732464_a_at) / RFU C10orf10 (11716521_a_at) / Fold change /veh C10orf10 (11716521_a_at) / RFU C5orf56 (11738089_at) / Fold change /veh C5orf56 (11738089_at) / RFU CYB561 (11721691_x_at) / Fold change /veh CYB561 (11721691_x_at) / RFU ANKRD19P (11752326_a_at) / Fold change /veh ANKRD19P (11752326_a_at) / RFU OR2T12 /// OR2T33 /// OR2T8 (11738714_s_at) / Fold change /veh OR2T12 /// OR2T33 /// OR2T8 (11738714_s_at) / RFU VCAN (11748164_a_at) / Fold change /veh VCAN (11748164_a_at) / RFU JSRP1 (11732532_at) / Fold change /veh JSRP1 (11732532_at) / RFU KRTAP10-11 (11738290_x_at) / Fold change /veh KRTAP10-11 (11738290_x_at) / RFU MYO3A (11730013_a_at) / Fold change /veh MYO3A (11730013_a_at) / RFU EBF3 (11725865_a_at) / Fold change /veh EBF3 (11725865_a_at) / RFU CAMK2N1 (11719241_x_at) / Fold change /veh CAMK2N1 (11719241_x_at) / RFU C5orf56 (11738088_a_at) / Fold change /veh C5orf56 (11738088_a_at) / RFU OLFML3 (11715873_a_at) / Fold change /veh OLFML3 (11715873_a_at) / RFU LOC100653217 /// NTM (11731650_a_at) / Fold change /veh LOC100653217 /// NTM (11731650_a_at) / RFU MAPK11 (11762145_a_at) / Fold change /veh MAPK11 (11762145_a_at) / RFU FIZ1 (11724087_x_at) / Fold change /veh FIZ1 (11724087_x_at) / RFU OASL (11726364_x_at) / Fold change /veh OASL (11726364_x_at) / RFU SOX15 (11748057_x_at) / Fold change /veh SOX15 (11748057_x_at) / RFU CD79A (11719716_a_at) / Fold change /veh CD79A (11719716_a_at) / RFU HIST1H1D (11736915_at) / Fold change /veh HIST1H1D (11736915_at) / RFU CASKIN2 (11723855_a_at) / Fold change /veh CASKIN2 (11723855_a_at) / RFU LOC730098 (11760151_x_at) / Fold change /veh LOC730098 (11760151_x_at) / RFU OR4N2 (11742367_at) / Fold change /veh OR4N2 (11742367_at) / RFU PRRT2 (11749266_a_at) / Fold change /veh PRRT2 (11749266_a_at) / RFU SNX32 (11753110_a_at) / Fold change /veh SNX32 (11753110_a_at) / RFU CDHR5 (11726645_a_at) / Fold change /veh CDHR5 (11726645_a_at) / RFU RCAN1 (11760418_a_at) / Fold change /veh RCAN1 (11760418_a_at) / RFU FAM167A (11723789_a_at) / Fold change /veh FAM167A (11723789_a_at) / RFU FAM26E (11764081_at) / Fold change /veh FAM26E (11764081_at) / RFU ISYNA1 (11749810_s_at) / Fold change /veh ISYNA1 (11749810_s_at) / RFU ACY1 (11761880_at) / Fold change /veh ACY1 (11761880_at) / RFU 11764098_at / Fold change /veh 11764098_at / RFU SAMD14 (11745864_x_at) / Fold change /veh SAMD14 (11745864_x_at) / RFU NPB (11741838_a_at) / Fold change /veh NPB (11741838_a_at) / RFU TMPRSS6 (11731388_a_at) / Fold change /veh TMPRSS6 (11731388_a_at) / RFU KRTAP10-2 (11738614_at) / Fold change /veh KRTAP10-2 (11738614_at) / RFU ARHGAP8 /// PRR5-ARHGAP8 (11727945_x_at) / Fold change /veh ARHGAP8 /// PRR5-ARHGAP8 (11727945_x_at) / RFU KRTAP5-7 /// NADSYN1 (11734609_at) / Fold change /veh KRTAP5-7 /// NADSYN1 (11734609_at) / RFU RASL12 (11751679_a_at) / Fold change /veh RASL12 (11751679_a_at) / RFU CDKN2B (11736163_a_at) / Fold change /veh CDKN2B (11736163_a_at) / RFU PRF1 (11729649_at) / Fold change /veh PRF1 (11729649_at) / RFU, ZNF638 /// ZNF638-IT1 / Fold change vs veh, ZNF638 /// ZNF638-IT1 / RFU, PANK3 / Fold change vs veh, PANK3 / RFU, SH3YL1 / Fold change vs veh, SH3YL1 / RFU, ZEB2 / Fold change vs veh, ZEB2 / RFU, NRIP1 / Fold change vs veh, NRIP1 / RFU, PTTG1IP / Fold change vs veh, PTTG1IP / RFU, CAPN2 / Fold change vs veh, CAPN2 / RFU, MED14 / Fold change vs veh, MED14 / RFU, SNORA58 / Fold change vs veh, SNORA58 / RFU, C1orf63 / Fold change vs veh, C1orf63 / RFU, LRRFIP1 / Fold change vs veh, LRRFIP1 / RFU, NDUFAF7 / Fold change vs veh, NDUFAF7 / RFU, SLC12A2 / Fold change vs veh, SLC12A2 / RFU, IBTK / Fold change vs veh, IBTK / RFU, ESF1 / Fold change vs veh, ESF1 / Fold change vs veh, TMEM50B / RFU, TAOK1 / Fold change vs veh, TAOK1 / RFU, ACBD3 / Fold change vs veh, ACBD3 / RFU, TMA16 / Fold change vs veh, TMA16 / RFU, RWDD3 / Fold change vs veh, RWDD3 / RFU, BCAT1 / Fold change vs veh, BCAT1 / RFU, EDEM3 / Fold change vs veh, EDEM3 / RFU, TMEM33 / Fold change vs veh, TMEM33 / RFU, WDR75 / Fold change vs veh, WDR75 / RFU, AHCTF1 / Fold change vs veh, AHCTF1 / RFU, TFRC / Fold change vs veh, TFRC / RFU, ZDHHC17 / Fold change vs veh, ZDHHC17 / RFU, NOM1 / Fold change vs veh, NOM1 / RFU, ARL8B / Fold change vs veh, ARL8B / RFU, ZBTB11 / Fold change vs veh, ZBTB11 / RFU, TAMM41 / Fold change vs veh, TAMM41 / RFU, KIAA1704 /// LOC100996395 / Fold change vs veh, KIAA1704 /// LOC100996395 / RFU, ING1 / Fold change vs veh, ING1 / RFU, TRMT61B / Fold change vs veh, TRMT61B / RFU, FUBP3 / Fold change vs veh, FUBP3 / RFU, TP53 / Fold change vs veh, TP53 / RFU, TNKS2 / Fold change vs veh, TNKS2 / RFU, ZFP14 / Fold change vs veh, ZFP14 / RFU, ACTR2 / Fold change vs veh, ACTR2 / RFU, PPP3R1 / Fold change vs veh, PPP3R1 / RFU, PIK3R1 / Fold change vs veh, PIK3R1 / RFU, HNRNPA1 / Fold change vs veh, HNRNPA1 / RFU, RNF170 / Fold change vs veh, RNF170 / RFU, ZNF28 / Fold change vs veh, ZNF28 / RFU, RNGTT / Fold change vs veh, RNGTT / RFU, OGT / Fold change vs veh, OGT / RFU, BRD1 / Fold change vs veh, BRD1 / RFU, MARS / Fold change vs veh, MARS / RFU, ZNF655 / Fold change vs veh, ZNF655 / RFU, FAHD1 / Fold change vs veh, FAHD1 / RFU, BDP1 / Fold change vs veh, BDP1 / RFU, LRRCC1 / Fold change vs veh, LRRCC1 / RFU, ARID1A / Fold change vs veh, ARID1A / RFU, ZNF146 / Fold change vs veh, ZNF146 / RFU, ZNF330 / Fold change vs veh, ZNF330 / RFU, GPN3 / Fold change vs veh, GPN3 / RFU, C9orf123 / Fold change vs veh, C9orf123 / RFU, N4BP2L2 / Fold change vs veh, N4BP2L2 / RFU, ARFIP1 / Fold change vs veh, ARFIP1 / RFU, FAM179B / Fold change vs veh, FAM179B / RFU, BCL10 / Fold change vs veh, BCL10 / RFU, UHRF1BP1L / Fold change vs veh, UHRF1BP1L / RFU, BET1 / Fold change vs veh, BET1 / RFU, CNOT2 / Fold change vs veh, CNOT2 / RFU, ZNF268 / Fold change vs veh, ZNF268 / Fold change vs veh, ZNF507 / RFU, DGCR2 / Fold change vs veh, DGCR2 / RFU, WDSUB1 / Fold change vs veh, WDSUB1 / Fold change vs veh, HSP90B1 /// MIR3652 / RFU, ADSS / Fold change vs veh, ADSS / RFU, GK / Fold change vs veh, GK / RFU, ZNF148 / Fold change vs veh, ZNF148 / RFU, TAF9 / Fold change vs veh, TAF9 / RFU, SLC1A5 / Fold change vs veh, SLC1A5 / RFU, SLMO2 / Fold change vs veh, SLMO2 / RFU, ABCC4 / Fold change vs veh, ABCC4 / RFU, LOC101060439 /// RAP1B / Fold change vs veh, LOC101060439 /// RAP1B / RFU, RFX7 / Fold change vs veh, RFX7 / RFU, GTPBP10 / Fold change vs veh, GTPBP10 / RFU, CNEP1R1 / Fold change vs veh, CNEP1R1 / RFU, BIVM-ERCC5 /// ERCC5 / Fold change vs veh, BIVM-ERCC5 /// ERCC5 / RFU, ILF3 / Fold change vs veh, ILF3 / RFU 11762660_at / Fold change /veh 11762660_at / RFU VCAN (11757783_s_at) / Fold change /veh VCAN (11757783_s_at) / RFU DDX43 (11728927_at) / Fold change /veh DDX43 (11728927_at) / RFU KRT8 (11758188_x_at) / Fold change /veh KRT8 (11758188_x_at) / RFU NKD1 (11759106_at) / Fold change /veh NKD1 (11759106_at) / RFU SRD5A1 (11742802_a_at) / Fold change /veh SRD5A1 (11742802_a_at) / RFU TPSAB1 /// TPSB2 (11721975_s_at) / Fold change /veh TPSAB1 /// TPSB2 (11721975_s_at) / RFU GSTM3 (11746129_a_at) / Fold change /veh GSTM3 (11746129_a_at) / RFU IL23R (11737362_x_at) / Fold change /veh IL23R (11737362_x_at) / RFU TMEM51 (11727254_a_at) / Fold change /veh TMEM51 (11727254_a_at) / RFU PIWIL2 (11732686_x_at) / Fold change /veh PIWIL2 (11732686_x_at) / RFU ORM1 (11744905_x_at) / Fold change /veh ORM1 (11744905_x_at) / RFU CCDC152 (11743942_at) / Fold change /veh CCDC152 (11743942_at) / RFU ECM1 (11717891_a_at) / Fold change /veh ECM1 (11717891_a_at) / RFU IL23R (11748794_a_at) / Fold change /veh IL23R (11748794_a_at) / RFU TNFAIP8L3 (11732012_x_at) / Fold change /veh TNFAIP8L3 (11732012_x_at) / RFU MBOAT4 (11741988_at) / Fold change /veh MBOAT4 (11741988_at) / RFU 11764193_at / Fold change /veh 11764193_at / RFU TMEM53 (11763286_at) / Fold change /veh TMEM53 (11763286_at) / RFU MAGEB2 (11727129_at) / Fold change /veh MAGEB2 (11727129_at) / RFU TMEM200A (11744735_a_at) / Fold change /veh TMEM200A (11744735_a_at) / RFU CCDC152 (11751479_a_at) / Fold change /veh CCDC152 (11751479_a_at) / RFU FAM211A (11726209_a_at) / Fold change /veh FAM211A (11726209_a_at) / RFU RGS16 (11746705_a_at) / Fold change /veh RGS16 (11746705_a_at) / RFU VCAN (11755009_s_at) / Fold change /veh VCAN (11755009_s_at) / RFU RHOB (11743442_s_at) / Fold change /veh RHOB (11743442_s_at) / RFU RGS16 (11720943_a_at) / Fold change /veh RGS16 (11720943_a_at) / RFU RGS16 (11720944_at) / Fold change /veh RGS16 (11720944_at) / RFU, VPS4B / Fold change vs veh, VPS4B / RFU, CREB1 / Fold change vs veh, CREB1 / RFU, DNAJC13 / Fold change vs veh, DNAJC13 / RFU, GNAQ / Fold change vs veh, GNAQ / RFU, CDK5R1 / Fold change vs veh, CDK5R1 / RFU, ZRANB3 / Fold change vs veh, ZRANB3 / RFU, CUL4A / Fold change vs veh, CUL4A / RFU, CCNY / Fold change vs veh, CCNY / RFU, UFL1 / Fold change vs veh, UFL1 / RFU, COG3 / Fold change vs veh, COG3 / RFU, DIAPH2 / Fold change vs veh, DIAPH2 / RFU, SKA2 / Fold change vs veh, SKA2 / RFU, AFF3 / Fold change vs veh, AFF3 / RFU, LMF1 / Fold change vs veh, LMF1 / RFU, IPO11 / Fold change vs veh, IPO11 / RFU, DFFB / Fold change vs veh, DFFB / RFU, FOXP1 / Fold change vs veh, FOXP1 / RFU, CARD8 / Fold change vs veh, CARD8 / RFU, STRN3 / Fold change vs veh, STRN3 / RFU, ADK / Fold change vs veh, ADK / RFU, RASSF2 / Fold change vs veh, RASSF2 / RFU, WIPF1 / Fold change vs veh, WIPF1 / RFU, LARP1B / Fold change vs veh, LARP1B / RFU, RASA1 / Fold change vs veh, RASA1 / RFU, RB1 / Fold change vs veh, RB1 / RFU, PPFIA1 / Fold change vs veh, PPFIA1 / RFU, MAT2A / Fold change vs veh, MAT2A / RFU, CCT5 / Fold change vs veh, CCT5 / RFU, WDR92 / Fold change vs veh, WDR92 / RFU, CUX1 / Fold change vs veh, CUX1 / RFU, TTC7A / Fold change vs veh, TTC7A / RFU, TMEM135 / Fold change vs veh, TMEM135 / RFU, DEPTOR / Fold change vs veh, DEPTOR / RFU, CPM / Fold change vs veh, CPM / RFU, DNAJB6 / Fold change vs veh, DNAJB6 / RFU, CACNA2D3 / Fold change vs veh, CACNA2D3 / RFU, DTX4 / Fold change vs veh, DTX4 / RFU, TFCP2 / Fold change vs veh, TFCP2 / RFU, GMCL1 /// GMCL1P1 / Fold change vs veh, GMCL1 /// GMCL1P1 / RFU, AEBP2 / Fold change vs veh, AEBP2 / RFU, SNHG1 /// SNORD22 /// SNORD25 /// SNORD26 /// SNORD27 /// SNORD28 /// SNORD29 /// SNORD31 / Fold change vs veh, SNHG1 /// SNORD22 /// SNORD25 /// SNORD26 /// SNORD27 /// SNORD28 /// SNORD29 /// SNORD31 / Fold change (Aza/veh), C12orf56 (ProbeSet 11735607_a_at) / Fold change (ACY-1035/veh), C12orf56 (ProbeSet 11735607_a_at) / Fold change (Aza/veh), FGFR1OP (ProbeSet 11751329_s_at) / Fold change (ACY-1035/veh), FGFR1OP (ProbeSet 11751329_s_at) / Fold change (Aza/veh), VPS36 (ProbeSet 11739960_a_at) / Fold change (ACY-1035/veh), VPS36 (ProbeSet 11739960_a_at) / RFU SYPL1 (11715823_x_at) / Fold change /veh SYPL1 (11715823_x_at) / RFU IGFBP7 (11715501_s_at) / Fold change /veh IGFBP7 (11715501_s_at) / RFU REEP3 (11722064_at) / Fold change /veh REEP3 (11722064_at) / RFU IGLL1 (11728026_x_at) / Fold change /veh IGLL1 (11728026_x_at): dose or concentration left out as unconfirmed
Conditions: MV-4-11 cells, 48 hours

In the case of Nc1ccc(-c2cccs2)cc1NC(=O)c1ccc2c(c1)cc(C1CC1)n2CCN1CCOCC1 [ACY-1035], the “Fold change /veh REEP3 (11722064_at)” value is reported as 0.53.
